The values that follow come from patent US10626100B2, “Selective HDAC6 inhibitors” (The Trustees of Columbia University in the City of New York, priority 2013, dated 2020).

In this test the target is T1, HDAC6 (Homo sapiens, UniProt Q9UBN7).
T1 sequence (Q9UBN7 1-1215): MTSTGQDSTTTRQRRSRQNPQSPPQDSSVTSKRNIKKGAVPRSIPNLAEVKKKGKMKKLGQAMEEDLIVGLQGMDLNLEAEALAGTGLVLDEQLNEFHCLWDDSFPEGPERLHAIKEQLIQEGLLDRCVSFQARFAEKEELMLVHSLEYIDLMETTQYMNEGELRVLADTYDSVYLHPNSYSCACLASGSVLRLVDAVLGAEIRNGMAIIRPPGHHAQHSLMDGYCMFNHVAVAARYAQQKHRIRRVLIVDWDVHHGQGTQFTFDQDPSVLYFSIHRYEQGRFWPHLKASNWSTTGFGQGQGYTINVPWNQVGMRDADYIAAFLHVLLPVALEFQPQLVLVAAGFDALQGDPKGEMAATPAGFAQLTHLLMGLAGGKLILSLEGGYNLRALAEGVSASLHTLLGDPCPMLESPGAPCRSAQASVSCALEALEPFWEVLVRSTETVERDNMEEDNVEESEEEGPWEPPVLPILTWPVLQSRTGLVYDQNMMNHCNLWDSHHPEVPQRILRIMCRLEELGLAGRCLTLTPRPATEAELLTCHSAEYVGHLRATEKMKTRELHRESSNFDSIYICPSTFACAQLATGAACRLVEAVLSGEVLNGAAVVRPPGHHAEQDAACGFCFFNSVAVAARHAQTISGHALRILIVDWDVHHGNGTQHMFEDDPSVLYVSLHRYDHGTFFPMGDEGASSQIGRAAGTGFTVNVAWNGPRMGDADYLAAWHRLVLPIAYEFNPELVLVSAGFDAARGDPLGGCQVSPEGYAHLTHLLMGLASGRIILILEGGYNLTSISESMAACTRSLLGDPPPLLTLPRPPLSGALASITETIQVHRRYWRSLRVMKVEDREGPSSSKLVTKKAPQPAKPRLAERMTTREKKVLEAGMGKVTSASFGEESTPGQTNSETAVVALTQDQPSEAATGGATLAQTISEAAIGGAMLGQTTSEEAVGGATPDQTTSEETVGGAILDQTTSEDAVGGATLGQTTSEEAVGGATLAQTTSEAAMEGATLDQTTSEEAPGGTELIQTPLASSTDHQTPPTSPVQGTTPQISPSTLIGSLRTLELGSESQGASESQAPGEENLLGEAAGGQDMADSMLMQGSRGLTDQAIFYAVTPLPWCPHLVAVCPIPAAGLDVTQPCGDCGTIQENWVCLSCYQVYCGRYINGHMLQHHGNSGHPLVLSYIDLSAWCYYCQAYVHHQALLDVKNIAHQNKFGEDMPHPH
The experiment in a line: Inhibition of recombinant HDAC6.

For the molecule `O=C(NO)c1ccc(CN(CCO)C(=O)Cc2ccccc2)cc1` [Compound 8, N-hydroxy-4-((N-(2-hydroxyethyl)-2-phenylacetamido)methyl) benzamide], the “potency as inhibitor of HDAC6 compared with SAHA” value is listed as “one hundred fold more potent”. For the same molecule, the IC50 (as a rule, the midpoint of a concentration-inhibition curve) (read-out: IC50 (nM) HCAC6, recombinant HDAC6) was found to be 31 nM.
